Assay results as given in paper PMC3265452 (PLoS Neglected Tropical Diseases, 2012).
Counter-ions that a name gives are not always drawn.

Target: AaDOP2 (Aedes aegypti, UniProt H6D5H2)
Experiment: AaDOP2 antagonist screen of the LOPAC1280 library (HEK-CRELuc-Aadop2 cells, luminescence)
Format: cell-based
Conditions: not given

AaDOP2, sequence (H6D5H2 1-476): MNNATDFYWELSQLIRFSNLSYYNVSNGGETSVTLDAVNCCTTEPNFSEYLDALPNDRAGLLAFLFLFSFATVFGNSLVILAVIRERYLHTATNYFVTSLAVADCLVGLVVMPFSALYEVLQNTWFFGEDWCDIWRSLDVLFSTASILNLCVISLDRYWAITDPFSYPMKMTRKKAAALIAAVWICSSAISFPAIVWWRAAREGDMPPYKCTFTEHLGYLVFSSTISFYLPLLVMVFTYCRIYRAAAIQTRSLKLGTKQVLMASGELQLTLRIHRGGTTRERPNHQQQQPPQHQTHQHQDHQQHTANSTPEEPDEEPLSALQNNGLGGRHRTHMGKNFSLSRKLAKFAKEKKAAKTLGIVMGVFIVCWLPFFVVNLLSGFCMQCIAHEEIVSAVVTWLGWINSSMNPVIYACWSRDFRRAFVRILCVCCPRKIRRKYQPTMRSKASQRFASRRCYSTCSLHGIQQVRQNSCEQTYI

Question: For `CCOC(=O)c1ncn2c1[C@@H]1CCCN1C(=O)c1cc(OC)ccc1-2` [Compound 718, L-655,708], which “Compound effect (percent receptor signaling in presence of test compound, relative lux units relative to the SCH23390 control)” value is on record?
Answer: 90

Question: `Cl.O=c1cc(N2CCOCC2)oc2c(-c3ccccc3)cccc12` [Compound 719, LY-294,002 hydrochloride] was tested. Which “Compound effect (percent receptor signaling in presence of test compound, relative lux units relative to the SCH23390 control)” value did it give?
Answer: 53

Question: With `CN1CCN(C2=Nc3ccccc3Oc3ccc(Cl)cc32)CC1` [Compound 720, Loxapine succinate] as the compound, how does the “Compound effect (percent receptor signaling in presence of test compound, relative lux units relative to the SCH23390 control)” value read?
Answer: 3

Question: For `CCCCCN(CCCCC)C(=O)C(CCC(=O)O)NC(=O)c1ccc(Cl)c(Cl)c1` (stereo not shown) [Compound 722, Lorglumide sodium], which “Compound effect (percent receptor signaling in presence of test compound, relative lux units relative to the SCH23390 control)” value is on record?
Answer: 122

Question: With `Ic1ccccc1CNC1C2CCN(CC2)C1C(c1ccccc1)c1ccccc1.O=C(O)C(=O)O` [Compound 725, L-703,606 oxalate] as the compound, how does the “Compound effect (percent receptor signaling in presence of test compound, relative lux units relative to the SCH23390 control)” value read?
Answer: 98

Question: For `C=CCN1CC[C@]23CCCC[C@H]2[C@H]1Cc1ccc(O)cc13` [Compound 726, Levallorphan tartrate], which “Compound effect (percent receptor signaling in presence of test compound, relative lux units relative to the SCH23390 control)” value is on record?
Answer: 93

Question: `Cl.Clc1ccc(N2CCN(Cc3c[nH]c4ncccc34)CC2)cc1` [Compound 728, L-745,870 hydrochloride] was tested. Which “Compound effect (percent receptor signaling in presence of test compound, relative lux units relative to the SCH23390 control)” value did it give?
Answer: 111

Question: How did the “Compound effect (percent receptor signaling in presence of test compound, relative lux units relative to the SCH23390 control)” value turn out when `O=C1N(c2ccccc2)c2ccccc2C1(Cc1ccncc1)Cc1ccncc1` [Compound 730, Linopirdine] was run?
Answer: 106

Question: With `OC1(c2ccc(Cl)cc2)CCN(Cc2c[nH]c3ccccc23)CC1` [Compound 731, L-741,626] as the compound, how does the “Compound effect (percent receptor signaling in presence of test compound, relative lux units relative to the SCH23390 control)” value read?
Answer: 104

Question: With `COc1cc(CNC(=O)CCCCCCC(C)C)ccc1O` [Compound 735, Dihydrocapsaicin] as the compound, how does the “Compound effect (percent receptor signaling in presence of test compound, relative lux units relative to the SCH23390 control)” value read?
Answer: 102

Question: Which “Compound effect (percent receptor signaling in presence of test compound, relative lux units relative to the SCH23390 control)” value does the source give for `Cc1cn[nH]c1.Cl` [Compound 737, 4-Methylpyrazole hydrochloride] here?
Answer: 111

Question: With `COC(=O)Nc1nc2ccc(C(=O)c3cccs3)cc2[nH]1` [Compound 738, Nocodazole] as the compound, how does the “Compound effect (percent receptor signaling in presence of test compound, relative lux units relative to the SCH23390 control)” value read?
Answer: 89

Question: For `CNCCc1c[nH]c2ccc(O)cc12.O=C(O)C(=O)O` [Compound 739, N-omega-Methyl-5-hydroxytryptamine oxalate salt], which “Compound effect (percent receptor signaling in presence of test compound, relative lux units relative to the SCH23390 control)” value is on record?
Answer: 115

Question: Which “Compound effect (percent receptor signaling in presence of test compound, relative lux units relative to the SCH23390 control)” value does the source give for `C#CCN1C(C)=C(C(=O)OC)C(c2cccc([N+](=O)[O-])c2)C(C(=O)OCC)=C1C` (stereo not shown) [Compound 741, MRS 1845] here?
Answer: 101

Question: With `CCCOC(=O)c1c(-c2ccccc2)nc(CC)c(C(=O)SCC)c1CCC` [Compound 743, MRS 1523] as the compound, how does the “Compound effect (percent receptor signaling in presence of test compound, relative lux units relative to the SCH23390 control)” value read?
Answer: 101

Question: For `N[C@@H](Cc1ccc(N(CCCl)CCCl)cc1)C(=O)O` [Compound 744, Melphalan], which “Compound effect (percent receptor signaling in presence of test compound, relative lux units relative to the SCH23390 control)” value is on record?
Answer: 102

Question: For `COc1ccc2[nH]cc(CCN(C)C)c2c1.O=C(O)C(=O)O` [Compound 745, 5-Methoxy DMT oxalate], which “Compound effect (percent receptor signaling in presence of test compound, relative lux units relative to the SCH23390 control)” value is on record?
Answer: 104

Question: How did the “Compound effect (percent receptor signaling in presence of test compound, relative lux units relative to the SCH23390 control)” value turn out when `CC[C@H](C)C(=O)O[C@H]1CCC=C2C=C[C@H](C)[C@H](CC[C@@H]3C[C@@H](O)CC(=O)O3)[C@H]21` [Compound 748, Mevastatin] was run?
Answer: 106

Question: With `COCc1nc2c([nH]1)c(=O)n(C)c(=O)n2CC(C)C` [Compound 749, 8-Methoxymethyl-3-isobutyl-1-methylxanthine] as the compound, how does the “Compound effect (percent receptor signaling in presence of test compound, relative lux units relative to the SCH23390 control)” value read?
Answer: 107

Question: Which “Compound effect (percent receptor signaling in presence of test compound, relative lux units relative to the SCH23390 control)” value does the source give for `CC(C)c1ccc2c(c1)c(SC(C)(C)C)c(CC(C)(C)C(=O)O)n2Cc1ccc(Cl)cc1` [Compound 750, MK-886] here?
Answer: 65

Question: Which “Compound effect (percent receptor signaling in presence of test compound, relative lux units relative to the SCH23390 control)” value does the source give for `CC[C@@H](CO)NC(=O)[C@@H]1C=C2c3cccc4[nH]cc(c34)C[C@H]2N(C)C1` [Compound 752, Methylergonovine maleate] here?
Answer: 107

Question: Which “Compound effect (percent receptor signaling in presence of test compound, relative lux units relative to the SCH23390 control)” value does the source give for `CCOC(=O)[N-]c1cn(N2CCOCC2)n[o+]1` [Compound 753, Molsidomine] here?
Answer: 98

Question: How did the “Compound effect (percent receptor signaling in presence of test compound, relative lux units relative to the SCH23390 control)” value turn out when `Cc1nnc2ccc(-c3cccc(C(F)(F)F)c3)nn12` [Compound 754, 3-Methyl-6-(3-[trifluoromethyl]phenyl)-1,2,4-triazolo[4,3-b]pyridazine] was run?
Answer: 87

Question: Which “Compound effect (percent receptor signaling in presence of test compound, relative lux units relative to the SCH23390 control)” value does the source give for `NC(=O)c1ncn([C@@H]2O[C@H](CO)[C@@H](O)[C@H]2O)c1O` [Compound 755, Mizoribine] here?
Answer: 94

Question: How did the “Compound effect (percent receptor signaling in presence of test compound, relative lux units relative to the SCH23390 control)” value turn out when `CC[N+](CC)(CC)CCOc1ccc(/C=C/c2ccccc2)cc1` [Compound 757, MG 624] was run?
Answer: 89

Question: Which “Compound effect (percent receptor signaling in presence of test compound, relative lux units relative to the SCH23390 control)” value does the source give for `CN[C@H](CC(=O)O)C(=O)O` [Compound 758, N-Methyl-D-aspartic acid] here?
Answer: 97

Question: With `CCCCCCCCCCCCCCCCOCC(COCC(F)(F)F)OP(=O)(O)OC` (stereo not shown) [Compound 760, MJ33] as the compound, how does the “Compound effect (percent receptor signaling in presence of test compound, relative lux units relative to the SCH23390 control)” value read?
Answer: 77

Question: With `CN1C[C@H](CNC(=O)OCc2ccccc2)C[C@@H]2c3cccc4c3c(cn4C)C[C@H]21` [Compound 761, Metergoline] as the compound, how does the “Compound effect (percent receptor signaling in presence of test compound, relative lux units relative to the SCH23390 control)” value read?
Answer: 33

Question: Which “Compound effect (percent receptor signaling in presence of test compound, relative lux units relative to the SCH23390 control)” value does the source give for `C#CCN(C)CCCOc1ccc(Cl)cc1Cl` [Compound 763, Clorgyline hydrochloride] here?
Answer: 96

Question: For `CNc1ncnc2c1ncn2[C@H]1C[C@H](OP(=O)(O)O)[C@@H](COP(=O)(O)O)O1` [Compound 764, MRS 2179], which “Compound effect (percent receptor signaling in presence of test compound, relative lux units relative to the SCH23390 control)” value is on record?
Answer: 105

Question: For `Cc1cnc(NC(=O)C2=C(O)c3ccccc3S(=O)(=O)N2C)s1` [Compound 765, Meloxicam sodium], which “Compound effect (percent receptor signaling in presence of test compound, relative lux units relative to the SCH23390 control)” value is on record?
Answer: 115

Question: Which “Compound effect (percent receptor signaling in presence of test compound, relative lux units relative to the SCH23390 control)” value does the source give for `O=c1c(O)c(-c2ccc(O)cc2O)oc2cc(O)cc(O)c12` [Compound 766, Morin] here?
Answer: 117

Question: How did the “Compound effect (percent receptor signaling in presence of test compound, relative lux units relative to the SCH23390 control)” value turn out when `Nc1cc(N2CCCCC2)nc(N)[n+]1[O-]` [Compound 767, Minoxidil] was run?
Answer: 110

Question: With `COc1cc(CCN)ccc1O.Cl` [Compound 768, 3-Methoxy-4-hydroxyphenethylamine hydrochloride] as the compound, how does the “Compound effect (percent receptor signaling in presence of test compound, relative lux units relative to the SCH23390 control)” value read?
Answer: 116

Question: With `Cc1ccc(Cl)c(Nc2ccccc2C(=O)O)c1Cl` [Compound 769, Meclofenamic acid sodium] as the compound, how does the “Compound effect (percent receptor signaling in presence of test compound, relative lux units relative to the SCH23390 control)” value read?
Answer: 107

Question: Which “Compound effect (percent receptor signaling in presence of test compound, relative lux units relative to the SCH23390 control)” value does the source give for `Cc1[nH]c(=O)c(C#N)cc1-c1ccncc1` [Compound 770, Milrinone] here?
Answer: 104

Question: For `Cl.Cl.Cn1cnc(CCN)c1` [Compound 772, 1-Methylhistamine dihydrochloride], which “Compound effect (percent receptor signaling in presence of test compound, relative lux units relative to the SCH23390 control)” value is on record?
Answer: 94

Same assay, conditions: 10 µM compound, 300 nM dopamine, 2 hr; hit = compound effect <20

Question: Which “Compound effect (percent receptor signaling in presence of test compound, relative lux units relative to the SCH23390 control)” value does the source give for `CC(O)C(C)OC(=O)[C@@H]1C[C@@H]2c3cccc4c3c(cn4C(C)C)C[C@H]2N(C)C1.O=C(O)/C=C\C(=O)O` (stereo partly shown) [Compound 721, LY-53,857 maleate] here?
Answer: 73%

Question: With `CN1C2CCC1CC(NC(=O)c1nn(C)c3ccccc13)C2.O=C(O)/C=C\C(=O)O` (stereo not shown) [Compound 723, LY-278,584 maleate] as the compound, how does the “Compound effect (percent receptor signaling in presence of test compound, relative lux units relative to the SCH23390 control)” value read?
Answer: 92%

Question: With `Cl.Cl.Cl.Ic1ccc(N2CCN(Cc3c[nH]c4ncccc34)CC2)cc1` [Compound 729, L-750,667 trihydrochloride] as the compound, how does the “Compound effect (percent receptor signaling in presence of test compound, relative lux units relative to the SCH23390 control)” value read?
Answer: 107%

Question: `Cl.FC(F)(F)c1cc(CO[C@H]2CCCN[C@H]2c2ccccc2)cc(C(F)(F)F)c1` [Compound 732, L-733,060 hydrochloride] was tested. Which “Compound effect (percent receptor signaling in presence of test compound, relative lux units relative to the SCH23390 control)” value did it give?
Answer: 94%

Question: How did the “Compound effect (percent receptor signaling in presence of test compound, relative lux units relative to the SCH23390 control)” value turn out when `CCN(CC)CCNC(=O)c1cc(Cl)c(N)cc1OC.Cl` [Compound 733, Metoclopramide hydrochloride] was run?
Answer: 101%

Question: `COc1ccc2cc([C@H](C)C(=O)[O-])ccc2c1.[Na+]` [Compound 736, (-)-Naproxen sodium] was tested. Which “Compound effect (percent receptor signaling in presence of test compound, relative lux units relative to the SCH23390 control)” value did it give?
Answer: 105%

Question: Which “Compound effect (percent receptor signaling in presence of test compound, relative lux units relative to the SCH23390 control)” value does the source give for `COc1nc(C)nc(Cl)c1NC1=NCCN1.Cl` [Compound 740, Moxonidine hydrochloride] here?
Answer: 94%

Question: `CN1C[C@H](O)[C@@H](O)[C@H](O)[C@H]1CO` [Compound 742, N-Methyl-1-deoxynojirimycin] was tested. Which “Compound effect (percent receptor signaling in presence of test compound, relative lux units relative to the SCH23390 control)” value did it give?
Answer: 101%

Question: For `CC(C)NCC(O)c1cc(O)cc(O)c1.CC(C)NCC(O)c1cc(O)cc(O)c1.O=S(=O)(O)O` (stereo not shown) [Compound 746, Metaproterenol hemisulfate], which “Compound effect (percent receptor signaling in presence of test compound, relative lux units relative to the SCH23390 control)” value is on record?
Answer: 111%

Question: With `Cc1cccc(C)c1OCC(C)N.Cl` (stereo not shown) [Compound 751, Mexiletene hydrochloride] as the compound, how does the “Compound effect (percent receptor signaling in presence of test compound, relative lux units relative to the SCH23390 control)” value read?
Answer: 105%

Question: `CSC(=N)N.CSC(=N)N.O=S(=O)(O)O` [Compound 756, S-Methylisothiourea hemisulfate] was tested. Which “Compound effect (percent receptor signaling in presence of test compound, relative lux units relative to the SCH23390 control)” value did it give?
Answer: 99%

Same assay, conditions: read-out: % of the SCH23390 effect (percent inhibition of receptor response relative to the SCH23390 control)

Question: Which inhibition at 10 µM does the source give for `CN1CCN(C2=Nc3ccccc3Oc3ccc(Cl)cc32)CC1` [Compound 720, Loxapine succinate] here?
Answer: 97%
